Columns and labels:
[1] = Systemic blood pressure response in anesthetized dog; conditions: infusion: adenosine 372 μg/kg/min, Compound A 1 μg/kg/min
Experimental: An anesthetized dog was prepared for cardiovascular function testing. Electromagnetic flow probes were placed on the circumflex coronary artery and the left anterior descending coronary artery. Systemic systolic and diastolic blood pressure and heart rate were also measured.

[2] = test system: circumflex coronary artery; assay: Circumflex coronary blood flow in anesthetized dog, electromagnetic flow probes; type: in vivo; conditions: for increase in circumflex coronary blood flow: adenosine 372 μg/kg/min, Compound A 1.0 μg/kg/min
Experimental: An anesthetized dog was prepared for cardiovascular function testing.

[3] = test system: coronary arterioles; conditions: background, cited from earlier work
[4] = test system: circumflex coronary artery; assay: Thallium-201 scintigram in anesthetized dogs with stenosed circumflex coronary artery; type: in vivo; conditions: dog, adenosine 372 μg/kg/min for 6 minutes, Compound A 0.6 μg/kg/min
Description: Dogs were anesthetized and their circumflex coronary artery was stenosed to produce a cardiac perfusion deficit.

[5] = literature; cited from earlier work
[6] = target: A2a (coronary) (Cavia porcellus, UniProt P46616)
Experimental: An isolated guinea pig heart preparation was set up using well-known techniques. The heart was perfused with a constant flow pump through the coronary vessels with a oxygenated balanced salt solution. The coronary perfusion pressure and the EKG were measured. Under constant flow, a decrease in coronary perfusion pressure indicates dilation (A2a effect).

[7] = target: T1, A1 (EKG) (Cavia porcellus, UniProt P47745); assay: A50 for decrease in heart rate or conduction velocity on the EKG (A1 effect) in the isolated guinea pig heart
T1 construct: An isolated guinea pig heart preparation was set up using well-known techniques; from tissue; host or cells: isolated perfused guinea pig heart
T1 sequence (P47745 1-326): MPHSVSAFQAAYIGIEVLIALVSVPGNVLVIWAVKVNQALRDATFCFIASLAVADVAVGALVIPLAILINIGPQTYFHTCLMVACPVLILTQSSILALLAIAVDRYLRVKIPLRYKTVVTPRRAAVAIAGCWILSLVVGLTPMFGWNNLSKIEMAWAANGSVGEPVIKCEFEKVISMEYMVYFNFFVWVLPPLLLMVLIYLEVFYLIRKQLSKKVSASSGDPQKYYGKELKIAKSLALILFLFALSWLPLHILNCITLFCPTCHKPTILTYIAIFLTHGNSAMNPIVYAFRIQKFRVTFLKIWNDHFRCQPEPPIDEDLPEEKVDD

[8] = infusion: adenosine 372 μg/kg/min, Compound A 1 μg/kg/min

Sequence of A2a (coronary) (P46616 whole entry, the tested form may be a part): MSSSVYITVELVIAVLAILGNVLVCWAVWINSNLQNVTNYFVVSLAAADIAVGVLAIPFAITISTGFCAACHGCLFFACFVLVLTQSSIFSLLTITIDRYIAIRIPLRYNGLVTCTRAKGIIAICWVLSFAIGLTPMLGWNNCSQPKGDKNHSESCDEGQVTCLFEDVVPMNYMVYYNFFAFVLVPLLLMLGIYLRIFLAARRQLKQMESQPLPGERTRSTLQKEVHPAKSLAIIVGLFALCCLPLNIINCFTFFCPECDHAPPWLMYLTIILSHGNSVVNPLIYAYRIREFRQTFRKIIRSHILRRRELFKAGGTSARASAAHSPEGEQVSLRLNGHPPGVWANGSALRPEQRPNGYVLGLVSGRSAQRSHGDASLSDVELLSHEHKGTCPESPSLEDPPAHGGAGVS

| Compound | CHANGE IN SYSTOLIC BLOOD PRESSURE [1] | DURATION OF RESPONSE [1] | increase in circumflex coronary blood flow [2] | CHANGE IN […] FLOW [2, 8] | duration of coronary blood flow effect [3] | heart block ([3]; particularly at doses near 1 mg/kg) | perfusion defect shown on thallium-201 scintigram [4] | duration of significant hypotensive response [5] | reflex tachycardia [5] | S[…] A1/A2a ([6]; A50 EKG (A1) over A50 coronary (A2a)) | potency relative to adenosine in causing coronary vasodilation ([6]; isolated guinea pig heart, vs adenosine) | EC50 ([6]; read-out: A50 CORONARY (A2a EFFECT), isolated guinea pig heart, concentration producing a 50% maximal response) | EC50 [7] | CHANGE IN CIRCUMFLEX CORONARY FLOW [2, 8] |
| --- | --- | --- | --- | --- | --- | --- | --- | --- | --- | --- | --- | --- | --- | --- |
| Nc1ncnc2c1ncn2[C@@H]1O[C@H](CO)[C@@H](O)[C@H]1O [Adenosine, adenosine] | -25% | 5 min | 300% | +300% | short-lasting | even blocks (stops) the heart beat | clearly showed a perfusion defect | – | – | – | – | – | – | – |
| CCNC(=O)[C@H]1O[C@@H](n2cnc3c(N)nc(NCCc4ccc(CCC(=O)O)cc4)nc32)[C@H](O)[C@@H]1O [CGS 21680] | – | – | – | – | – | – | – | more than 24 hrs | significant reflex tachycardia | – | – | – | – | – |
| Nc1nc(NN=CC2CCCCC2)nc2c1ncn2[C@@H]1O[C@H](CO)[C@@H](O)[C@H]1O [Compound A] | – | 15 min | 500% | – | – | – | – | – | – | 15,000 | 250 times | 0.0002 µM | 3 µM | +500% |
